Entries after “also recorded” stand apart in the source; their conditions may differ.
How the values were obtained:
[1] = Solubility (physico-chemical properties of the prepared compound); assay type: physicochemical
Source text: Each compound of the present invention is a known compound and is disclosed by WO02/09756 or WO03/062243 and can be produced from SPF-3059 strain which is a fungus belonging to the genus Penicillium. Production process and physico-chemical properties are described in the above international publication pamphlets. Specifically, the following compounds were respectively prepared. • (Compound SPF-3059-1) • Appearance: Yellow powder • High resolution fast atom bombardment mass spectrum • (HRFAB-MS) m/z (M+H)^+: • Observed value: 579.0772 • Calculated value: 579.0776 • Molecular formula: C28H18O14 • Ultraviolet visible absorption spectrum λ max (in methanol) nm(ε): […]

[2] = system: increased intra ocular pressure model (retina of SD rats); experiment: Pharmacological effect on an increased intra ocular pressure model (retinal layer thickness); assay type: in vivo, rat; conditions: for thickness of outer nuclear layer (ONL), Average / thickness of inner nuclear layer (INL), Average / thickness of inner plexus layer (IPL), Average: 5 μl of 0.1 mg/ml to the vitreous body; for cell death of inner granular cells due to increased intra ocular pressure (in words): overall conclusion of the example; for decrease of the thickness of the inner granular cell layer (INL) due to increased intra ocular pressure (in words) / decrease of the thickness of the inner plexus layer (IPL) due to increased intra ocular pressure (in words): compared to IOP increase load + PBS group, Student's t-test; for influence of administration on the outer nuclear layer (in words): rats with IOP increase load, pre- or post-administration to the vitreous body
Source text: The retinal nerve consists of the extraretinal granular layer, granule cells in the retina and the gangliocyte layer, and granule cells in the retina and the gangliocyte layer receive blood supply from the central retinal artery. When pressure is imposed on the anterior chamber, a load is imposed on the cribrosa lamina which is not covered with the sclera and the central retinal artery which extends through this area is occluded, and as a result, granule cells in the retina and the gangliocyte layer becomes ischemic, and cell death occurs.
The damage of granule cells in the retina can be readily evaluated as “the thickness of the inner nuclear layer (INL)” representing the change in number of the cells. Since the inner plexus layer, synapses between each neurons, is also damaged by the increase in the intra ocular pressure and made thinner, the thickness of the inner plexus layer (IPL) becomes an indicator to show the degree of damage. Therapeutic or preventive agents for retinal neuropathy having a suppressive effect have been explored using these two parameters as indices.
20 SD rats (6-week old) were used and divided into the following groups. • Sham operation (sometimes abbreviated as Sham ope hereinbelow): Five rats (Of these, 4 rats were used for analysis) • IOP (Intra Ocular pressure) treatment+PBS (5 μl was administered to the vitreous body): Five rats (Of these, 4 rats were used for analysis) • IOP (Intra Ocular pressure) treatment+test compound (5 μl was pre-administered to the vitreous body): Five rats (Of these, 4 rats were used for analysis) • IOP (Intra Ocular pressure) treatment+test compound (5 μl was post-administered to the vitreous body): Five rats (Of these, 4 rats were used for analysis) • (2) Increase in Intra Ocular Pressure
By the following steps, increased intra ocular pressure model animals were prepared and a drug (test compound) was administered thereto.
(i) A rat was set to a brain stereotaxic apparatus under anesthesia with […].
(ii) The head of the rat was fixed and an eyeball was pricked with a 26-G needle attached to the tip of a tube, which was connected to a sphygmomanometry device, into the rat anterior chamber and a load was imposed so that the inner pressure of the anterior chamber was 140 to 160 mmHg.
(iii) As for the timing of the administration of a drug into the vitreous body, the drug was administered 15 minutes before the intra ocular pressure increasing load for pre-administration, while the drug was administered 15 minutes after the intra ocular pressure increasing load for post-administration.
(iv) Increase in intra ocular pressure was maintained for one hour, and the rat was relieved from the brain anchor after the intra ocular pressure loading and ordinarily bred for one week.
(v) After sacrificed by suffocation with carbon dioxide, eyeballs were removed.
(vi) A paraffin section of the retina was prepared and dyed with 0.5% cresyl violet.
(vii) A histological image at a position 880 μm from the optic papilla (upper part of the retina) was photographed and the thicknesses of the outer nuclear layer (ONL), inner nuclear layer (INL) and inner plexus layer (IPL) were measured. • (3) Preparation of a Drug and Administration Method
SPF-3059-1 as a test substance was dissolved in PBS to a concentration of 1 mg/ml and further diluted with PBS to 0.1 mg/ml immediately before use. 5 μl of the diluted solution was administered to the vitreous body of the left eye of a rat with a 30G double needle. • (4) Significance Test
Intra ocular pressure was increased by the method of above (2) and significance tests were conducted by Student's t-test and Welch & F-test on the retinal protection effect of SPF-3059-1 administration in rats to which PBS was administered to the vitreous body.
Each of the thickness of outer nuclear layer, inner nuclear layer and inner plexus layer was measured using the retina of the rats in each treatment group, and a cytoprotective effect was evaluated. […]

[3] = system: increased intra ocular pressure model (retina of SD rats); experiment: as above; assay type: in vivo, rat; conditions: Example 2, 7-week old SD rats, 5 μl of 0.1 mg/ml to the vitreous body
cultured nerve cells = conditions: in a short period of time; as low as; cited from earlier work
[4] = Example 1, 6-week old SD rats, IOP increase load + test substance post-administration, one week after load
[5] = Example 1, 6-week old SD rats, IOP increase load + test substance pre-administration, one week after load
[6] = IOP increase load + test substance pre-administration
[7] = Example 2, 7-week old SD rats, IOP increase load + test substance post-administration

CC(=O)c1cc2c(=O)c3c(C(=O)O)c(O)c(O)cc3oc2c(C(C)=O)c1-c1coc2cc(O)c(O)cc2c1=O [SPF-3059-24]
Solubility ([1]; in DMSO): soluble | Solubility ([1]; in hexane): Insoluble | Solubility ([1]; in methanol): soluble | Solubility ([1]; in water): Insoluble

CC(=O)c1c(C)c(C(=O)C2COc3cc(O)c(O)c(C(=O)O)c3C2=O)cc2c(=O)c3c(C(=O)O)c(O)c(O)cc3oc12 (centres unmarked) [SPF-3059-1]
thickness of outer nuclear layer (ONL), Average ([2]; Example 1, 6-week old SD rats, IOP increase load + test substance post-administration (15 minutes after load), one week after load): 45.56 μm | thickness of inner nuclear layer (INL), Average [2, 4]: 27.89 μm | thickness of inner plexus layer (IPL), Average [2, 4]: 40.45 μm | thickness of outer nuclear layer (ONL), Average ([2]; Example 1, 6-week old SD rats, IOP increase load + test substance pre-administration (15 minutes before load), one week after load): 45.79 μm | thickness of inner nuclear layer (INL), Average [2, 5]: 29.56 μm | thickness of inner plexus layer (IPL), Average [2, 5]: 46.89 μm | cell death of inner granular cells due to increased intra ocular pressure (in words) [2]: suppressed | decrease of the thickness of the inner granular cell layer (INL) due to increased intra ocular pressure (in words) ([2]; post-administration): tends to be suppressed; also recorded: suppressing tendency | decrease of the thickness of the inner plexus layer (IPL) due to increased intra ocular pressure (in words) ([2]; post-administration): tends to be suppressed; also recorded: suppressing tendency | decrease of the thickness of the inner granular cell layer (INL) due to increased intra ocular pressure (in words) ([2]; pre-administration): suppressed significantly; also recorded: suppressing effect | decrease of the thickness of the inner plexus layer (IPL) due to increased intra ocular pressure (in words) ([2]; pre-administration): suppressed significantly; also recorded: suppressing effect | influence of administration on the outer nuclear layer (in words) [2]: does not have an influence

CC(=O)c1cc2c(=O)c3c(C(=O)O)c(O)c(O)cc3oc2c(C(C)=O)c1-c1coc2cc(O)c(O)c(C(=O)O)c2c1=O [SPF-3059-5]
thickness of outer nuclear layer (ONL), Average ([3]; IOP increase load + test substance post-administration): 61.76 μm | thickness of inner nuclear layer (INL), Average [3, 6]: 33.09 μm | thickness of inner plexus layer (IPL), Average [3, 6]: 55.88 μm | thickness of outer nuclear layer (ONL), Average [3, 6]: 60.29 μm | thickness of inner nuclear layer (INL), Average [2, 7]: 36.76 μm | thickness of inner plexus layer (IPL), Average [2, 7]: 55.15 μm | cell death of inner granular cells due to increased intra ocular pressure (in words) [2]: suppressed | decrease of the thickness of the inner granular cell layer (INL) due to increased intra ocular pressure (in words) ([2]; post-administration): shown statistically significantly | decrease of the thickness of the inner plexus layer (IPL) due to increased intra ocular pressure (in words) ([2]; post-administration): suppressed significantly | decrease of the thickness of the inner granular cell layer (INL) due to increased intra ocular pressure (in words) ([2]; pre-administration): tends to be suppressed; also recorded: suppressing tendency | decrease of the thickness of the inner plexus layer (IPL) due to increased intra ocular pressure (in words) ([2]; pre-administration): suppressed significantly; also recorded: suppressing effect | influence of administration on the outer nuclear layer (in words) [2]: does not have an influence

B1: semaphorin 3A: endogenous protein which collapses the nerve growth cone and suppresses axon elongation (protein, UniProt Q14563 21-771, looked up)
Semaphorin-3A: NYQNGKNNVPRLKLSYKEMLESNNVITFNGLANSSSYHTFLLDEERSRLYVGAKDHIFSFDLVNIKDFQKIVWPVSYTRRDECKWAGKDILKECANFIKVLKAYNQTHLYACGTGAFHPICTYIEIGHHPEDNIFKLENSHFENGRGKSPYDPKLLTASLLIDGELYSGTAADFMGRDFAIFRTLGHHHPIRTEQHDSRWLNDPKFISAHLISESDNPEDDKVYFFFRENAIDGEHSGKATHARIGQICKNDFGGHRSLVNKWTTFLKARLICSVPGPNGIDTHFDELQDVFLMNFKDPKNPVVYGVFTTSSNIFKGSAVCMYSMSDVRRVFLGPYAHRDGPNYQWVPYQGRVPYPRPGTCPSKTFGGFDSTKDLPDDVITFARSHPAMYNPVFPMNNRPIVIKTDVNYQFTQIVVDRVDAEDGQYDVMFIGTDVGTVLKVVSIPKETWYDLEEVLLEEMTVFREPTAISAMELSTKQQQLYIGSTAGVAQLPLHRCDIYGKACAECCLARDPYCAWDGSACSRYFPTAKRRTRRQDIRNGDPLTHCSDLHHDNHHGHSPEERIIYGVENSSTFLECSPKSQRALVYWQFQRRNEERKEEIRVDDHIIRTDQGLLLRSLQQKDSGNYLCHAVEHGFIQTLLKVTLEVIDTEHLEELLHKDDDGDGSKTKEMSNSMTPSQKVWYRDFMQLINHPNLNTMDEFCEQVWKRDRKQRRQRPGHTPGNSNKWKHLQENKKGRNRRTHEFERAPRSV
concentration inducing growth cone collapse of the cultured nerve cells (cultured nerve cells): 10 pM

Source: patent publication US20110105599A1, “THERAPEUTIC OR PREVENTIVE AGENTS FOR ISCHEMIC NEUROPATHY” (Dainippon Sumitomo Pharma Co., Ltd., priority 2003, published 2011)
